Test results as given in ChEMBL document CHEMBL1129792, “Synthesis and structure-activity relationships of 1,2,3,4-tetrahydroquinoline-2,3,4-trione 3-oximes: novel and highly potent antagonists for NMDA receptor glycine site” (J Med Chem, 1996).

Legend:
[1] = Functional antagonism of NR1a/2C N-methyl-D-aspartate glutamate receptor of rat membrane expressed in Xenopus oocytes; settings: Oocyte
[2] = biological target: Glutamate receptor ionotropic, NMDA 1 (Rattus norvegicus, UniProt P35439); assay: Inhibition of [3H]- DCKA binding to NMDA receptor of rat brain membranes; type: cell membranes, Membrane
[3] = biological target: Glutamate receptor ionotropic, AMPA (Rattus norvegicus) (UniProt P19491+P19492+P19493+P19490); assay: Inhibition of Ionotropic glutamate receptor AMPA in xenopus oocytes expressing the rat cerebral cortex poly(A+) RNA; type: cell-based; settings: Oocyte
[4] = Steady state Selectivity index for inhibition at NMDA receptor glycine site was estimated by dividing Kb (AMPA) by Kb (NMDA)

Row | Compound | Kb [1] [nM] | IC50 [2] [nM] | Kb [3] [nM] | Selectivity [4]
1 | Oc1nc2cc(Cl)c(Cl)c(Cl)c2nc1O | 82 | 30 |  | 
2 | Oc1nc2cc(Cl)cc(Cl)c2nc1O | 730 | 280 |  | 
3 | Oc1nc2ccc(Cl)cc2nc1O | 2600 | 1800 |  | 
4 | O=Nc1c(O)nc2cc(Cl)c(Cl)cc2c1O | 24 | 12 | 410 | 17
5 | O=Nc1c(O)c2c(F)c(F)c(F)c(F)c2[nH]c1=O |  | 3300 |  | 
6 | Cc1cc(C)c2nc(O)c(O)nc2c1 |  | 2100 |  | 
7 | Cc1cc(C)c2c(O)c(N=O)c(O)nc2c1 | 170 |  | 2600 | 15
8 | Oc1nc2cc(Cl)c(Cl)cc2nc1O [2,3-DIHYDROXY-6,7-DICHLOROQUINOXALINE] | 380 | 130 |  | 
9 | O=Nc1c(O)c2cc(Cl)ccc2[nH]c1=O |  | 3400 |  | 
10 | O=Nc1c(O)nc2cc(Cl)c(Cl)c(Cl)c2c1O | 22 | 7 | 180 | 
11 | Oc1nc2cc(F)c(Cl)c(F)c2nc1O |  | 630 |  | 
12 | O=Nc1c(O)nc2cc(Cl)ccc2c1O | 86 | 53 | 740 | 8.6
13 | O=Nc1c(O)nc2cc(Cl)cc(Cl)c2c1O | 47 |  | 600 | 13
14 | O=c1[nH]c2c(F)c(F)c(F)c(F)c2[nH]c1=O |  | 730 |  | 
15 | O=Nc1c(O)nc2c(Cl)cccc2c1O |  | > 100000 |  | 
16 | Oc1nc2ccccc2nc1O |  | 9800 |  | 
17 | O=Nc1c(O)nc2cccc(Cl)c2c1O |  | 4400 |  | 
18 | O=Nc1c(O)nc2ccc(Cl)c(Cl)c2c1O |  | 170 |  | 
19 | O=Nc1c(O)nc2ccccc2c1O |  | 1400 |  | 
20 | O=Nc1c(O)c2cc(F)c(Cl)c(F)c2[nH]c1=O |  | 910 |  | 
21 | Cc1cc(C)c2c(O)c(N=O)c(=O)[nH]c2c1 |  | 37 |  | 
22 | O=Nc1c(O)c2c(Cl)cc(Cl)cc2[nH]c1=O |  | 33 |  | 
